The text below walks through data of US20230271969A1, “NITROGEN-CONTAINING FUSED RING DERIVATIVE INHIBITOR, PREPARATION METHOD THEREFOR AND USE THEREOF” (Shanghai Hansoh Biomedical Co., Ltd., priority 2020, published 2023).

The nature of data set [1]: Pharmacokinetic assay in SD rats (plasma and brain tissue). It is filed as in vivo. As to conditions: rat, po, male SD rats, p.o. 5 mg/kg; for AUC(0-t): read-out: Area under curve AUC0-t; for Tmax: read-out: Peak time tmax; for Cmax: read-out: Plasma concentration Cmax. The method, then:
Test Example 4. Pharmacokinetic Assays in SD Rats
SD rats were used as test animals. The in vivo (plasma and brain tissue) pharmacokinetic behavior of the compounds of the present invention was investigated by oral administration of the compound in rats at a dose of 5 mg/kg.
Male SD rats (21 animals per group), purchased from Shanghai JieSiJie Laboratory Animal Co., Ltd., under the Animal Production License Number of SCXK (Shanghai) 2013-0006 No. 311620400001794.
The experimental drug was dissolved in 0.5% CMC-Na (1% Tween 80) by sonication to formulate a clear solution or a homogeneous suspension.
After an overnight fast, male SD rats (21 animals per group) were administered p.o. with the experimental drug at an administration dose of 5 mg/kg and the administration volume of 10 mL/kg.
Rats were sacrificed with CO2 at 0, 0.5, 1, 2, 4, 8 and 24 hours before and after the drug administration. 8 mL of blood was collected by cardiac puncture, placed in EDTA-K2 tubes, and centrifuged at 4° C. at 6,000 rpm for 6 min. Plasma was separated and stored at −80° C. The whole brain tissue was dissected and weighed, and then placed in a 2 mL centrifuge tube and stored at −80° C.
2.6 Sample Processing: • 1) 160 μL of acetonitrile was added to 40 μL of plasma sample for precipitation. After mixing, the sample was centrifuged at 3500×g for 5-20 minutes. • 2) 90 μL of acetonitrile containing internal standard (100 ng/mL) was added to 30 μL of plasma or brain homogenate sample for precipitation. After mixing, the sample was centrifuged at 13,000 rpm for 8 minutes. • 3) 70 μL of water was added to 70 μL of treated supernatant, and mixed by vortex for 10 minutes. Then 20 μL of the sample was analyzed by LC/MS/MS to determine the concentration of the compound to be tested. The LC/MS/MS instrument for analysis was AB Sciex API 4000 Qtrap.
2.7 Liquid Chromatography Analysis: • Liquid chromatography conditions: Shimadzu LC-20AD pump • Chromatographic column: Agilent ZORBAX XDB-C18 (50×2.1 mm, 3.5 μm) Mobile phase: Eluent A was 0.1% formic acid in water, and Eluent B was acetonitrile. • Flow rate: 0.4 mL/min • Elution time: 0-4.0 minutes, the eluate was as follows:
The major pharmacokinetic parameters were calculated by using WinNonlin 6.1, and the results of the pharmacokinetic experiments in rats were shown in Table 3 below: […]

Data set [2] relates to Senktide-induced bilateral ovariectomy rats. Nature of the data set: Tail skin temperature in a Senktide-induced bilateral ovariectomy rat model. It is filed as in vivo. As to conditions: OVX SD rats, oral 30 mg/kg, 30 min before s.c. Senktide, tail skin temperature over 75 min. From the text:
Pharmacodynamic Study of the Test Compounds on Tail Skin Temperature in a Senktide-Induced Bilateral Ovariectomy Rat Model
To evaluate the effect of the test compounds on tail skin temperature in Senktide-induced bilateral ovariectomy rats.
2.3. Experimental Animals • Ten-Week-old female bilateral ovariectomy SD rats were purchased from Beijing Vital River Laboratory Animal Technology Co., Ltd. The animals were housed in a SPF grade animal facility with 5 SD rats per cage. The cages, bedding, feed and water were disinfected at high temperatures before use. All animals had free access to food and water.
Ten-week-old female SD rats were subjected to bilateral ovariectomy and recovered for two weeks, and then randomly divided into negative control group, model group and drug administration group (8 rats per group), based on body weight. The probe was attached to the dorsal surface of the rat tail with medical tape, 1-2 cm away from the tailhead of the rat.
The vehicle was administered orally to the negative control group and the model group, and different test compounds were administered orally to each drug administration group at a dose of 30 mg/kg and a volume of 10 mL/kg.
Thirty minutes after the oral administration of the vehicle or test compound, the negative control group was injected subcutaneously with normal saline (at a volume of 5 mL/kg); the model group and each drug administration group were injected subcutaneously with 0.2 mg/mL of Senktide (at a volume of 5 mL/kg) to induce the hot flashes-like symptom.
The change in tail skin temperature (ΔTST) at each time point relative to time point 0 was calculated, the ΔTST-time curve of the change in tail skin temperature was plotted, and the area under curve (AUCΔTST) was calculated. ΔTST=TSTn−TST0, TST0 is the tail skin temperature at 0 minute before the subcutaneous injection of normal saline or Senktide; TSTn is the tail skin temperature at the n minute after the subcutaneous injection.
AUCΔTST=Σ(ΔTSTn+ΔTSTn+5)*5/2

Where two headings read alike, the source gives them in different places.

For `C[C@@H]1c2nnc(-c3nc4cnc(Cl)cc4s3)n2CCN1C(=O)c1ccc(F)cc1` [Example 37, (R)-(3-(6-Chlorothiazolo[4,5-c]pyridin-2-yl)-8-methyl-5,6-dihydro-[1,2,4]triazolo[4,3-a]pyrazin-7(8H)-yl)(4-fluorophenyl)methanone], in data set [1] (Brain), the AUC(0-t) stood at 4200 ng·h/mL, the Tmax stood at 4 h and the Cmax is 1640 ng/mL. In data set [1] (Plasma), the AUC(0-t) came to 77800 ng·h/mL, the Tmax worked out at 8 h and the Cmax was 4000 ng/mL.

On to `[2H]c1cc(C(=O)N2CCn3c(-c4nc(Cl)ns4)nnc3[C@H]2C)ccc1F` [Example 56, (R)-(3-(3-Chloro-1,2,4-thiadiazol-5-yl)-8-methyl-5,6-dihydro-[1,2,4]triazolo[4,3-a]pyrazin-7(8H)-yl)(4-fluorophenyl-3-d)methanone], for which, in data set [1] (Brain), the AUC(0-t) was determined as 2710 ng·h/mL, the Tmax amounted to 1 h and the Cmax amounted to 798 ng/mL. In addition, in data set [1] (Plasma), the AUC(0-t) was 6150 ng·h/mL, the Tmax came out at 2 h and the Cmax came to 1170 ng/mL. Besides, the half-life in data set [1] (Plasma, read-out: Half life t1/2 (converted)) was 3.1 h. In addition, in data set [1] (Plasma, read-out: Mean residence time MRT), the MRT stood at 5.1 h. In data set [2], the AUCΔTST is 53.8 ± 19.8 °C · min.

As usually defined, the Tmax is the time from dosing to the highest level. What is called MRT is a mean duration of stay, worked out from the concentration-time curve.
